Assays:
Type in all cases: in vivo
[1] = system: beggarticks (hairy beggarticks, Bidens pilosa); assay: Test F pre-/postemergence: beggarticks
Source text: (§1) Seeds of plant species selected from corn (Zea mays), soybean (Glycine max), velvetleaf (Abutilon theophrasti), lambsquarters (Chenopodium album), poinsettia, wild (wild poinsettia, Euphorbia heterophylla), pigweed, palmer (palmer pigweed, Amaranthus palmeri), waterhemp (common waterhemp, Amaranthus rudis), surinam grass (Brachiaria decumbens), crabgrass, Brazil (Brazilian crabgrass, Digitaria horizontalis), panicum, fall (fall panicum Panicum dichotomiflorum), crabgrass, large (large crabgrass, Digitaria sanguinalis), foxtail, giant (giant foxtail, Setaria faberii), foxtail, green (green foxtail Setaria viridis), goosegrass (Eleusine indica), ragweed (common ragweed, Ambrosia elatior), barnyardgrass (Echinochloa crus-galli), sandbur (southern sandbur, Cenchrus echinatus), arrowleaf sida (Sida rhombifolia), ryegrass, Italian (Italian ryegrass, Lolium multiflorum), dayflower, VA (Virginia (VA) dayflower, Commelina virginica), field bindweed (Convolvulus arvensis), cocklebur (common cocklebur, Xanthium strumarium), morningglory (Ipomoea coccinea), nightshade (eastern black nightshade, Solanum ptycanthum), kochia (Kochia scoparia), nutsedge, yellow (yellow nutsedge, Cyperus esculentus), johnsongrass (Sorghum halepense), smartweed (ladysthumb smartweed, Polygonum persicaria), and beggarticks (hairy beggarticks, Bidens pilosa), were planted into a silt loam soil and treated preemergence with test chemicals formulated in a non-phytotoxic solvent mixture which included a surfactant. At the same time, plants selected from these crop and weed species and also pigweed (Amaranthus retroflexus), waterhemp_RES1 (ALS/Triazine resistant common waterhemp, Amaranthus rudis) and waterhemp_RES2 (ALS/HPPD resistant common waterhemp, Amaranthus rudis) were planted in pots containing a planting medium comprising spaghnum peat moss, vermiculite, wetting agent and starter nutrients treated with postemergence applications of some of the test chemicals formulated in the same manner. Plants ranged in height from 2 to 18 cm for postemergence treatments (1- to 4-leaf stage).
(§2) Treated plants and controls were maintained in a greenhouse for 14 to 21 days, after which time all species were compared to controls and visually evaluated. Plant response ratings, summarized in Table E, are based on a scale of 0 to 100 where 0 is no effect and 100 is complete control. A dash (-) response means no test result.

[2] = system: crabgrass, large (large crabgrass, Digitaria sanguinalis); assay: Test F pre-/postemergence: crabgrass, large; details: Preemergence
Source text: as §1, §2

[3] = system: velvetleaf (Abutilon theophrasti); assay: Test F pre-/postemergence: velvetleaf; details: Preemergence
Source text: as §1, §2

[4] = system: foxtail, giant (giant foxtail, Setaria faberii); assay: Test F pre-/postemergence: foxtail, giant; details: Preemergence
Source text: as §1, §2

[5] = Postemergence, 16 g ai/ha, scale 0 to 100
[6] = Postemergence, 31 g ai/ha, scale 0 to 100
[7] = Postemergence, 62 g ai/ha, scale 0 to 100
[8] = Postemergence, 125 g ai/ha, scale 0 to 100
[9] = 16 g ai/ha, scale 0 to 100, 0 no effect, 100 complete control
[10] = 31 g ai/ha, scale 0 to 100, 0 no effect, 100 complete control
[11] = Preemergence, 16 g ai/ha, scale 0 to 100, 0 no effect, 100 complete control
[12] = Preemergence, 31 g ai/ha, scale 0 to 100, 0 no effect, 100 complete control
[13] = Preemergence, 62 g ai/ha, scale 0 to 100
[14] = Preemergence, 125 g ai/ha, scale 0 to 100
[15] = Preemergence, 250 g ai/ha, scale 0 to 100

| SMILES | Plant response rating, Beggarticks [1, 5] | Plant response rating, Beggarticks [1, 6] | Plant response rating, Beggarticks [1, 7] | Plant response rating, Beggarticks [1, 8] | Plant response rating, Crabgrass, Large [2, 9] | Plant response rating, Crabgrass, Large [2, 10] | Plant response rating, Crabgrass, Large ([2]; 62 g ai/ha, scale 0 to 100) | Plant response rating, Crabgrass, Large ([2]; 125 g ai/ha, scale 0 to 100) | Plant response rating, Crabgrass, Large ([2]; 250 g ai/ha, scale 0 to 100) | Plant response rating, Velvetleaf [3, 9] | Plant response rating, Velvetleaf [3, 10] | Plant response rating, Velvetleaf ([3]; 125 g ai/ha, scale 0 to 100) | Plant response rating, Velvetleaf ([3]; 250 g ai/ha, scale 0 to 100) | Plant response rating, Foxtail, Giant [4, 9] | Plant response rating, Foxtail, Giant [4, 10] | Plant response rating, Foxtail, Giant ([4]; 62 g ai/ha, scale 0 to 100) | Plant response rating, Foxtail, Giant ([4]; 125 g ai/ha, scale 0 to 100) | Plant response rating, Foxtail, Giant ([4]; 250 g ai/ha, scale 0 to 100) | Plant response rating, Beggarticks [1, 11] | Plant response rating, Beggarticks [1, 12] | other results |
| --- | --- | --- | --- | --- | --- | --- | --- | --- | --- | --- | --- | --- | --- | --- | --- | --- | --- | --- | --- | --- | --- |
| Cc1nn(-c2ccnc(Cl)c2)nc1Cc1ccnc(C(F)(F)F)c1 [Compound 141] | 40 | 50 | 60 | 75 |  |  |  |  |  |  |  |  |  |  |  |  |  |  |  |  | Plant response rating, Beggarticks ([1]; Postemergence, 8 g ai/ha, scale 0 to 100): 40 |
| Cc1nn(-c2ccc(F)cc2F)nc1Oc1ccnc(C(F)(F)F)c1 [Compound 146] |  |  |  |  | 0 | 75 | 98 | 98 | 100 | 0 | 0 | 0 | 25 | 20 | 20 | 90 | 98 | 100 | 0 | 0 | Plant response rating, Beggarticks [1, 13]: 0; Plant response rating, Beggarticks [1, 14]: 0; Plant response rating, Beggarticks [1, 15]: 0 |
| CCc1nn(-c2ccc(C(F)(F)F)cc2)nc1Oc1ccnc(C(F)(F)F)c1 [Compound 169] | 25 | 25 | 25 | 30 | 98 | 98 | 100 | 100 | 100 | 0 | 0 | 60 | 100 | 70 | 100 | 100 | 100 | 100 | 0 | 0 | Plant response rating, Beggarticks ([1]; Postemergence, 250 g ai/ha, scale 0 to 100): 40; Plant response rating, Beggarticks [1, 13]: 0; Plant response rating, Beggarticks [1, 14]: 5; Plant response rating, Beggarticks [1, 15]: 5 |

Reference: patent US9302999B2, “Substituted triazoles as herbicides” (E. I. DU PONT DE NEMOURS AND COMPANY, priority 2012, dated 2016)
